Source: patent US20240325435A1, “METHODS OF USING COMPOUND OF GLYCOSAMINOGLYCAN” (Holy Stone Healthcare Co., Ltd., priority 2013, published 2024)

Tests used:
Raw 264.7 cells [1] = assay: In vitro anti-inflammatory effect, PGE2 amount in LPS-treated Raw 264.7 cells; format: cell-based; conditions: 4 hours
Experimental: Raw 264.7 cells (1×10^6 cells/well, 1000 μL) were incubated in a 24-well culture plate in the presence of 5% CO2 at 37° C. for 24 hours. • 2. […] Cell media were collected, and used for measuring PGE2. • 4. Nunc-Immuno 96-well plates were coated with goat polyclonal anti-mouse IgG secondary antibody. • 5. Aliquots of cell media were added to the immune plate with primary PGE2 monoclonal antibody and a tracer PGE2-acetylcholinesterase overnight at room temperature in the dark. • 6. The next day, the wells were aspirated, washed with 100 μL wash buffer (Cayman Chemical, Ann Arbor, MI, USA) five times. • 7. 200 μL of Elman's reagent was added in each well, and incubated 60-90 minutes at room temperature out of direct light. • 8. Gentle rotating/shaking was used to decrease the time required for color development. • 9. Absorbance was read at 412 nm. • 10. The PGE2 concentration of each sample was calculated from a PGE2 standard curve. • 11. The PGE2 amount percentage was as a function of the PGE2 level of each sample divided by the one of the control group which was LPS-treated, then multiplied this value by 100. • 12. […]
Raw 264.7 cells (1×10^6 cells/well, 1000 μL) were incubated in a 24-well culture plate in the presence of 5% CO2 at 37° C. for 24 hours. • 2. […] Absorbance was read at 412 nm. • 10. The PGE2 concentration of each sample was calculated from a PGE2 standard curve. • 11. […]

[2] = system: Adjuvant-Induced Arthritis (AIA); assay: Adjuvant-Induced Arthritis (rheumatoid arthritis) treatment effect in rats; format: in vivo, Sprague-Dawely rats; conditions: intravenous injection at day 14, 10 mg/kg
Experimental: • 1. Thirty of eight weeks male Sprague-Dawely rats (BioLASCO Taiwan Co., Ltd.) were prepared. Rats were divided into 4 groups randomly (n=9 for vehicle and Prednisolone group, n=6 for HA-ADH-Prednisolone and HA group). Every two rats were placed into one cage in rodent animal facility in Institute of Taiwan Animal Technology. • 2. Inject 0.1 mL of CFA (Complete Freund's Adjuvant, 10 mg/mL, Chondrex Inc.) containing 10 mg/mL of heat-killed mycobacterium into subcutaneously at a footpad of right hind limb. • 3. The needle should be inserted just under the skin of the footpad pointing toward the ankle: this maximizes delivery of the adjuvant to the draining popliteal lymph nodes. • 4. Severe and acute inflammation is observed within 30 minutes of injection, peaks within 3 to 4 days, and often persists for 20 to 25 days. • 5. Rat were treated at day 14 after induction of the Adjuvant-Induced Arthritis (AIA) by intravenous injection of Prednisolone or HA-Prednisolone (both 10 mg/kg), or saline as a control. • 6. Rats were sacrificed at day 20 after treatment and tissues were isolated hereafter.
• Paw thickness and Ankle circumference: Paw thickness determined by measuring paw diameter using a caliper, such as Mitsutoyo digimatic caliper. Ankle circumference determined by measuring 2 perpendicular diameters, the latero-lateral diameter (a) and the anteroposterior diameter (b), with a digital caliper and using the following formula: […]

Raw 264.7 cells [3] = assay: In vitro anti-inflammatory effect, nitrite by Griess reaction in LPS-treated Raw 264.7 cells; format: cell-based; conditions: 10 μM Budesonide equivalent, 378 μg/ml HA, 4 hours, then 1 μg/mL LPS 24 hours
Experimental: • 1. Raw 264.7 cells were suspended in culture medium without phenol red (Gibco-BRL, Vienna, Austria) and adjusted to 10^6/ml, and treated with 10 μM Budesonide, 378 μg/ml HA and HA-ADH-Budesonide (equal to 10 μM Budesonide). • 2. After treatment with drugs for 4 hours, 1 μg/mL LPS was added into medium for 24 hours. • 3. Cells treated with medium only served as a negative control group and treated with LPS (1 μg/mL) as a positive control group. • 4. The culture supernatants were removed subsequently and the nitric oxide were accumulated for the measurement of iNOS activity by the Griess-reaction. • 5. 100 μl Griess reagent (1% sulfanilamide, 0.1% naphthlethylenediamine dihydrochloride in 2.5% phosphoric acid) was added into 100 μl culture supernatant and the color development was assessed at 550 nm with a ELISA microplate reader (SpectraMax® M2e Multimode Plate Reader, Molecular Devices, USA). • 6. Standard curves were generated with a serial dilution of sodium nitrite dissolved in culture medium which is phenol red free. […] The inflammation index herein is nitrite.

Row | Compound | anti-inflammation effect, change percentage of PGE2 amount (FIG. 8) (Raw 264.7 cells [1]; 100 μM Fexofenadine or equivalent, then 1 μg/mL LPS 24 h) | treatment effect, change percentage of paw thickness (FIG. 11) [2] | anti-inflammation effect, change percentage of PGE2 amount (FIG. 10) (Raw 264.7 cells [1]; 86.7 μM Prednisolone or equivalent, then 1 μg/mL LPS 24 hours) | anti-inflammation effect, change of nitrite concentration (FIG. 6) (Raw 264.7 cells [3]) | treatment effect, change percentage of ankle circumference (FIG. 12) [2]
1 | CC(C)(C(=O)O)c1ccc(C(O)CCCN2CCC(C(O)(c3ccccc3)c3ccccc3)CC2)cc1 (stereo not drawn) [Fexofenadine] | has treatment effect |  |  |  | 
2 | C[C@]12C=CC(=O)C=C1CC[C@@H]1[C@@H]2[C@@H](O)C[C@@]2(C)[C@H]1CC[C@]2(O)C(=O)CO [Prednisolone] |  | showed the treatment effect | has treatment effect |  | 
3 | hyaluronic acid [HA] |  | almost the same trend comparing with control group |  | have treatment effect | enhance RA symptom
